# Assay results from patent US7629135B2, “Toll-like receptor agonists and antagonists and methods of use thereof” (The Board of Trustees of the University of Illinois, priority 2006, dated 2009).
# Columns and labels:
# [1] = tested on: mouse bone marrow derived macrophages (BMDM); experiment: G-CSF secretion in mouse BMDM (ELISA); type: cell-based; conditions: for G-CSF secretion by FPRL1 agonists: 16 h
# Experimental: SAA induces G-CSF expression in monocytes and macrophages: To determine whether SAA plays a role in neutrophilia, the ability of SAA to stimulate G-CSF expression was investigated. Human peripheral blood monocytes (PBMC) were incubated with SAA, and the concentration of secreted G-CSF in the culture medium was determined at various time points after stimulation. The concentration of SAA used in this experiment (1 μM) was well within its physiological range (0.08 μM to 80 μM). […] Since subsequent studies used mice for measurement of G-CSF secretion and neutrophilia, SAA-induced G-CSF expression in mouse bone marrow derived macrophages (BMDM) was determined, of which 98% were F4/80^+ CD14^+ based on flow cytometry analysis. […] The basal level of G-CSF remained stable at approximately 42 pg/ml/10^6 cells over the entire course of incubation.
# It was next determined whether induction of G-CSF expression was a primary function of SAA or resulted from contaminating LPS in the SAA preparation. The LPS concentration in the recombinant SAA preparation was ≦0.1 ng/μg protein, translating into ≦1.14 ng/ml LPS in a typical experiment with 1 μM SAA. LPS at this or 10-fold higher concentrations was tested for its effect on the expression of G-CSF. […] Given that most proteins are heat labile while LPS is heat resistant, the ability of heat-treated SAA (1 μM) and LPS (1 μg/ml) to stimulate G-CSF secretion in mouse BMDM was examined. After boiling for 25 min, LPS retained its ability to induce G-CSF production by ˜83%. […] In parallel experiments, polymyxin B, an amphiphilic cyclic polycationic peptide that specifically binds to LPS and blocks the cytokine-inducing effect of LPS (Stokes et al., 1989), was used to treat SAA or LPS prior to incubation with BMDM. […] Under the same experimental conditions, polymyxin B reduced LPS-stimulated G-CSF secretion by more than 70%.
# It was previously shown that FPRL1 is involved in SAA-induced IL-8 production in human neutrophils (He et al., 2003). It has also been shown that SAA binds to FPRL1 and stimulates the production of matrix metalloproteinase (O'Hara et al., 2004). […] A role of TLR2 in SAA-stimulated G-CSF expression was examined.
# Cell preparation and culture: Human peripheral blood monocytes were prepared from fresh, heparinized venous blood by Ficoll-Hypaque density-gradient centrifugation. Blood drawing followed a protocol approved by the Institutional Review Board at the University of Illinois at Chicago. Purified monocytes (>93% CD14^+ by flow cytometry) were kept in nonadherent condition in RPMI 1640 containing 0.5% FBS and maintained at 37° C. Mouse macrophages were differentiated from bone marrow cells. Mouse bone marrow cells were aspirated from the femurs of 8-12-week-old mice and cultured at 37° C. in 5% CO2 in RPMI 1640 medium containing 10% FBS, 15% L-cell conditional medium, 10 mM HEPES, 2 mM L-glutamine, 100 IU/ml penicillin, and 50 μg/ml streptomycin. The medium was changed every three days. Macrophages (about 98% F4/80+ by flow cytometry) were obtained after 7 days of culture. The mouse macrophage cell line RAW264.7 cells were maintained in DMEM medium supplemented with 10% FBS, 10 mM HEPES, 2 mM L-glutamine, 100 IU/ml penicillin, and 50 μg/ml streptomycin. TLR2-HeLa cells were generated by transfection of HeLa cell with the expression construct pUNO-hTLR2 (InvivoGen). Stable transfectants were selected with Blasticidin at 20 μg/ml for 2 weeks. Mock-transfected HeLa cells were generated similarly, with a pUNO empty vector. Cells were maintained in DMEM supplemented with 10% heat-inactivated FBS, 2 mM L-glutamine, 100 IU/ml penicillin, and 50 μg/ml streptomycin. Expression of TLR2 was confirmed using an anti-TLR2 antibody (eBioscience) and FTTC-conjugated anti-mouse antibody, on a FACSCalibur flow cytometer (Becton Dickinson). FIGS. 12 and 13 are plasmid maps of pUNO-hTLR2 and pNF-κB-Luc, respectively. […]
# [2] = tested on: RelA/p65 binding to the CK-1 site of the G-CSF promoter; experiment: Chromatin immunoprecipitation (ChIP) assay in RAW264.7 cells; type: cell-based, mouse; conditions: SAA 1 μM or TNFα 50 ng/ml
# Experimental: To investigate the mechanism for SAA-induced G-CSF production, the level of G-CSF transcript in SAA-stimulated BMDM was determined. […] The induction of G-CSF transcript peaked at 4 h after SAA stimulation. Since transcription of the G-CSF gene involves NF-κB binding to the RelA/p65 consensus element in the CK-1 site of the G-CSF promoter (Dunn et al., 1994; Hareng and Hartung, 2002), the role of NF-κB in SAA-stimulated G-CSF expression was determined. […] Using oligonucleotide probe based on the sequence of the CK-1 site (−161 to −152 in the G-CSF promoter), a protein •DNA complex (FIG. 2C) was identified. […] Inclusion of a RelA/p65 antibody blocking peptide in the assay abrogated the immunoprecipitation (FIG. 2D).
# ChIP assay: Reagents were obtained from Upstate Biotechnology, and ChIP assay was performed as per manufacturers specifications with minor modifications. Briefly, a total of 1×10^7 RAW264.7 cells were harvested and resuspended in a serum-free DMEM medium absence or presence of 1 μM SAA, or 50 ng/ml of TNFα, and incubated for 30 or 60 min at 37° C. Following stimulation, cells were crosslinked and then washed and resuspended in SDS-lysis buffer, and were sonicated (4 times for 10 s each, with a setting at ‘4’ on a Fisher Sonic 60 dismembrenator). […] The PCR products were analyzed on a 2.5% agarose gel.
# TLR2 = target: T1, TLR2 (Homo sapiens, UniProt O60603); experiment: NF-κB luciferase reporter assay in TLR2-HeLa cells; type: cell-based; conditions: HDL preincubation
# T1 construct: host or cells: HeLa
# Experimental: To determine whether TLR2 is a receptor for SAA, a TLR2-expressing cell line was prepared in HeLa cells, which contain very little endogenous TLR2 transcript (FIG. 6A, upper panel). […] TLR2 is a class I transmembrane protein that contains an extracellular ligand binding domain (ectodomain), a transmembrane domain and a cytoplasmic domain consisting of the Toll/IL-1/receptor/Resistance (TIR) motif. Studies have shown that TLR2 forms heterodimers with TLR1 and TLR6 (Ozinsky et al., 2000), which display different preference for TLR2 ligands (Hoebe et al., 2005; Takeuchi et al., 2002). The C-terminal TIR domain is conserved among TLRs and responsible for TLR signaling (O'Neill and Bowie, 2007; Takeda and Akira, 2004). To assess the relative contributions of TLRs to SAA signaling, TLR1, TLR2, TLR4 and TLR6 were overexpressed in the TLR2-HeLa cells, and their effects on SAA-induced NF-κB luciferase reporter activity were determined. […] In addition, the TIR domain deletion mutants (ΔTIR) of these receptors were expressed, which are negative regulators of TLR signaling.
# Methods for the generation of TLR2-HeLa stable cell line: HeLa cells stably transfected with human TLR2 gene were generated by transfecting HeLa cells with the expression construct pUNO-hTLR2 (InvivoGen, San Diego, Calif.; GenBank accession number for human TLR2 cDNA is NM_003264) and selected with Blasticidin at concentration of 20 μg/ml for 2 weeks. The control HeLa cells were generated at the same time by transfecting with empty pUNO vector. Cells were maintained in DMEM supplemented with 10% heat-inactivated FB S, 2 mM L-glutamine, 100 IU/ml penicillin, and 50 μg/ml streptomycin. Expression of TLR2 was confirmed using an anti-TLR2 antibody (eBioscience) and FTTC-conjugated anti-mouse antibody, on a FACSCalibur flow cytometer (Becton Dickinson). The TLR2-HeLa and control cells were then co-transfected with 5xNF-κB reporter plasmids (pNF-κB-Luc, Stratagene, Cedar Creek, Tex., catalog no. 219077) and empty SFFV vector bearing a neomycin resistant gene. The TLR2-HeLa/NF-κB reporting cells were obtained after selecting with G418 at concentration of […] for 2-3 weeks. Cells (5′10^5/ml) were grown in DMEM supplemented with 10% heat-inactivated FBS, 2 mM L-glutamine, 100 IU/ml penicillin, and […] streptomycin.
# Methods for using HeLa cells in reporter assay: Mock-transfected HeLa and TLR2-HeLa cells were maintained at ˜5×10^5 cells/well in six-well plates, transfected with plasmid expression vectors coding for a 3×κB-directed luciferase reporter, pCMVβ vector DNA (Promega) and/or other expression constructs as indicated. Total DNA concentration was adjusted to 1 μg/sample by addition of empty vector DNA. Transient transfection was performed using LipofectAmine Plus reagent (Invitrogen). […]
# T1 sequence (O60603 21-784): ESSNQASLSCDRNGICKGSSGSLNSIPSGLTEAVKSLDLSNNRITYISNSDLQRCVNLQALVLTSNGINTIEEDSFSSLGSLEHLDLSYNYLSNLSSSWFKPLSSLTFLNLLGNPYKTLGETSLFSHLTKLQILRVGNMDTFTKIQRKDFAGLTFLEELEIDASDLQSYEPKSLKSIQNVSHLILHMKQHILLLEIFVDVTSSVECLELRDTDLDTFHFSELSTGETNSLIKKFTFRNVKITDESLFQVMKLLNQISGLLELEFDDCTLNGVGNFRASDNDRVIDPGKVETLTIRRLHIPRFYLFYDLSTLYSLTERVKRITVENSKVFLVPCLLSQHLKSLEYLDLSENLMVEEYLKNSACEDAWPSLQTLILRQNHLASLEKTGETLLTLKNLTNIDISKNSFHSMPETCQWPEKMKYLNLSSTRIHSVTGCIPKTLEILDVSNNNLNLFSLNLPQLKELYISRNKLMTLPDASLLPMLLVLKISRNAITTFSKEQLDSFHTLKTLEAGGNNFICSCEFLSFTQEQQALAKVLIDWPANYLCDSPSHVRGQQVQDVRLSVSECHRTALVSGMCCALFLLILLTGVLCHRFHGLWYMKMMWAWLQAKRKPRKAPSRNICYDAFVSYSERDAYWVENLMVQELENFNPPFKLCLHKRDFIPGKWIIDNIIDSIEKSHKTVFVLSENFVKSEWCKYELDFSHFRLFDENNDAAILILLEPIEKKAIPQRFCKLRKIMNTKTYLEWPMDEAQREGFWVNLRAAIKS
# T1 sequence (Q15399 25-786 partner): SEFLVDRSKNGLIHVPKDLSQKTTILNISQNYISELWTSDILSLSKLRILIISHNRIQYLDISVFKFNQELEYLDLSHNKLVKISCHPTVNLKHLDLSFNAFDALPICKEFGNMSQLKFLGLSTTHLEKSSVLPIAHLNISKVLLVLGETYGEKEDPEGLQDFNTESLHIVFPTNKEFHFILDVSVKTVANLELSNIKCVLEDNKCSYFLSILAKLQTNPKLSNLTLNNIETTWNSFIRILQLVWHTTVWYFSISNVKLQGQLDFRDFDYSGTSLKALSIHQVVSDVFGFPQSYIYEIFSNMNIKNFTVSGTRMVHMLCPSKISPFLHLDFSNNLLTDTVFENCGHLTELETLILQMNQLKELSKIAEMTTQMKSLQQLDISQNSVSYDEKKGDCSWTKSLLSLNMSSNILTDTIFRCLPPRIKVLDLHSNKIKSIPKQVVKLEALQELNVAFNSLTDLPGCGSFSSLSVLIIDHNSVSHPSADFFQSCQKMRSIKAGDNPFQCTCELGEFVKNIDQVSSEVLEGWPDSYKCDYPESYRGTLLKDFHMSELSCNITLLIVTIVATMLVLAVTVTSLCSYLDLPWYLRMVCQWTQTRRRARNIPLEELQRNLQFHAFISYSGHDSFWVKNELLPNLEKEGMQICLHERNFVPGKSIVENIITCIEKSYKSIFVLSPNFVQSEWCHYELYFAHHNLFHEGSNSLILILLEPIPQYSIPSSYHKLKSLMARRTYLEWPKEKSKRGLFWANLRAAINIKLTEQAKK
molecule,measurement,setting,value
Polymyxin B [reference compound],reduction of LPS-stimulated G-CSF secretion,"[1]; polymyxin B 50 μg/ml pretreatment of LPS 1 μg/ml, BMDM",more than 70%
same,effect on potency of SAA in stimulating G-CSF expression,"[1]; polymyxin B 50 μg/ml pretreatment of SAA, BMDM",minimal effect
TNFα [reference compound],pull-down of CK-1 DNA fragment by anti-RelA/p65 antibody,[2],able to pull-down the CK-1 DNA fragment
"LESIFRSLLFRVM [MMK-1, reference compound]",G-CSF secretion by FPRL1 agonists,[1]; BMDM,unable to stimulate G-CSF secretion
WKYMVm [reference compound],G-CSF secretion by FPRL1 agonists,[1]; BMDM,unable to stimulate G-CSF secretion
pertussis toxin [reference compound],inhibition of SAA-induced G-CSF secretion,"[1]; BMDM pretreated overnight with pertussis toxin up to 200 ng/ml, then SAA 16 h",no significant inhibition
L7A: SAA with Leucine to Alanine mutation at position 7 (protein) RSFFSFAGEAFDGARDMWRAYSDMREANYIGSDKYFHARGNYDAAKRGPGGAWAAEVITDARENIQRFFGHGAEDSLADQAANEWGRSGKDPNHFRPAGLPEKY,effect of L7A mutation of SAA on the reduction by HDL of NF-κB activation,TLR2,partially reversed the reduction effect by HDL
